For 15 compounds, IC50 results are on record in patent US20250163104A1, “MACROCYCLIC IMMUNOMODULATORS” (priority 2021, published 2025).

The target of this experiment is T1, human PD-1 / PD-L1-Ig binding on Jurkat cell line over-expressing human PD-1 (Jurkat-PD-1) (Homo sapiens, UniProt Q15116).
T1 construct: expressed in transfected cells; host or cells: Jurkat
The experiment in a line: Jurkat-PD-1 Cell Binding High-Content Screening Assay (CBA). Type of experiment: cell-based. The conditions noted are these: Jurkat-PD-1 cells, PE-labeled PD-L1-Ig 20 nM final; read-out: Jurkat HPD1_PDL1 IC50. In a few lines:
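Cell-bound PE-labeled PD-L1-Ig (20 nM final, 1 h) measured by high-content imaging after fixation and Hoechst 33342 counterstain. Compound was applied first for 2 h at 37° C. to Jurkat cells over-expressing human PD-1 in DMEM with 10% FCS.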

Where a SMILES comes first, the peptide text is derived from it. Bridges are numbered along the chain shown (N, C = ends). [ ]: non-standard residue; d: D form. The star is where a group is joined. ξ: configuration not given here. Phe(3-CF3) = N[C@@H](Cc1cccc(C(F)(F)F)c1)C(=O)O; Phe(4-COOH) = N[C@@H](Cc1ccc(C(=O)O)cc1)C(=O)O; Bip = N[C@@H](Cc1ccc(-c2ccccc2)cc1)C(=O)O; Phe(3-Me) = Cc1cccc(C[C@H](N)C(=O)O)c1; Val(3-OH) = CC(C)(O)[C@H](N)C(=O)O; 3Pal = N[C@@H](Cc1cccnc1)C(=O)O; 4Pal = N[C@@H](Cc1ccncc1)C(=O)O; 2Thi = N[C@@H](Cc1cccs1)C(=O)O; Cha = N[C@@H](CC1CCCCC1)C(=O)O; Cit = NC(=O)NCCC[C@H](N)C(=O)O; hSer = N[C@@H](CCO)C(=O)O; Carboxymethyl = O=C(O)C*; Orn = NCCC[C@H](N)C(=O)O; Dab = NCC[C@H](N)C(=O)O; Dap = NC[C@H](N)C(=O)O; ξPra = C#CCC(N)C(=O)O; NHCH2CH2OMe = COCCN*

T1 sequence (Q15116 25-288): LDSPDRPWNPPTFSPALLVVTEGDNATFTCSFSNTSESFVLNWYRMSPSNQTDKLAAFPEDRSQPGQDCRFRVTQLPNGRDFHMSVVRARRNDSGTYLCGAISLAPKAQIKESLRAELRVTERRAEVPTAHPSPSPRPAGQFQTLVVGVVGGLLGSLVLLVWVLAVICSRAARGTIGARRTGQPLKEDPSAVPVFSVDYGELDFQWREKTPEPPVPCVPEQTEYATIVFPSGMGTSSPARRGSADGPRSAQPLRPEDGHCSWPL

Turning to `CC(C)C[C@H]1NC(=O)[C@H](CCCN)NC(=O)[C@H](C(C)C)NC(=O)[C@H](Cc2ccc(-c3ccccc3)cc2)NC(=O)[C@H](C(C)C)NC(=O)[C@H](Cc2c[nH]c3ccccc23)NC(=O)[C@H](CC(=O)O)NC(=O)[C@H](Cc2ccc(C(=O)O)cc2)NC(=O)[C@H](Cc2ccc(OCC(=O)O)cc2)NC(=O)CSC[C@@H](C(=O)N[C@@H](C)C(N)=O)NC(=O)[C@H]([C@@H](C)O)NC(=O)[C@H](C(C)C)NC(=O)[C@H](CC2CCCCC2)NC(=O)[C@H](CCN)NC1=O` [Compound 1691], the IC50 worked out at 32.8 nM.

On to `CC(C)C[C@H]1NC(=O)[C@H](CCCN)NC(=O)[C@H](CCC(=O)O)NC(=O)[C@H](Cc2ccc(-c3ccccc3)cc2)NC(=O)[C@H](C(C)C)NC(=O)[C@H](Cc2c[nH]c3ccccc23)NC(=O)[C@H](CC(=O)O)NC(=O)[C@H](Cc2ccc(C(=O)O)cc2)NC(=O)[C@H](CC(N)=O)NC(=O)CSC[C@@H](C(=O)N[C@@H](C)C(N)=O)NC(=O)[C@H]([C@@H](C)O)NC(=O)[C@H](C(C)C)NC(=O)[C@H](CC2CCCCC2)NC(=O)[C@H](CCN)NC1=O` [Compound 2157] ({CH2CO}-N[Phe(4-COOH)]DWV[Bip]E[Orn][dL][Dab][Cha]VTCA-NH2; thioether N-14), for which the IC50 came out at 8.1 nM.

On to `CC(C)C[C@H]1NC(=O)[C@H](CCCN)NC(=O)[C@H](CCC(=O)O)NC(=O)[C@H](Cc2ccc(-c3ccccc3)cc2)NC(=O)[C@H](C(C)C)NC(=O)[C@H](Cc2c[nH]c3ccccc23)NC(=O)[C@H](CC(=O)O)NC(=O)[C@H](Cc2cccs2)NC(=O)[C@H](CN)NC(=O)CSC[C@@H](C(=O)N[C@@H](C)C(N)=O)NC(=O)[C@H]([C@@H](C)O)NC(=O)[C@H](C(C)C)NC(=O)[C@H](CC2CCCCC2)NC(=O)[C@H](CCN)NC1=O` [Compound 2192] ({CH2CO}-[Dap][2Thi]DWV[Bip]E[Orn][dL][Dab][Cha]VTCA-NH2; thioether N-14), for which the half-inhibitory concentration (IC50) amounted to 18.4 nM.

With `Cc1cccc(C[C@@H]2NC(=O)[C@H](CC(=O)O)NC(=O)[C@H](Cc3ccc(OCC(=O)O)cc3)NC(=O)[C@H](CN)NC(=O)CSC[C@@H](C(=O)N[C@@H](C)C(=O)NCc3cnc(C)cn3)NC(=O)[C@H]([C@@H](C)O)NC(=O)[C@H](C(C)C)NC(=O)[C@H](CC3CCCCC3)NC(=O)[C@H](CCN)NC(=O)[C@@H](CC(C)C)NC(=O)[C@H](CCCN)NC(=O)[C@H](CCCNC(N)=O)NC(=O)[C@H](Cc3ccc(-c4ccccc4)cc3)NC(=O)[C@H](C(C)C)NC2=O)c1` [Compound 2006], the IC50 stood at 14.8 nM.

On to `CC(C)C[C@H]1NC(=O)[C@H](CCCN)NC(=O)[C@H](CCC(=O)O)NC(=O)[C@H](Cc2ccc(-c3ccccc3)cc2)NC(=O)[C@H](C(C)C)NC(=O)[C@H](Cc2cccc(C(F)(F)F)c2)NC(=O)[C@H](CC(=O)O)NC(=O)[C@H](Cc2ccncc2)NC(=O)[C@H](Cc2ccccc2)NC(=O)CSC[C@@H](C(=O)N[C@@H](C)C(N)=O)NC(=O)[C@H]([C@@H](C)O)NC(=O)[C@H](C(C)C)NC(=O)[C@H](CC2CCCCC2)NC(=O)[C@H](CCN)NC1=O` [Compound 1463] ({CH2CO}-F[4Pal]D[Phe(3-CF3)]V[Bip]E[Orn][dL][Dab][Cha]VTCA-NH2; thioether N-14), for which the IC50 is 24.4 nM.

Take `CC(C)C[C@@H]1NC(=O)[C@H](CCN)NC(=O)[C@@H](CC(C)C)NC(=O)[C@H](CCCN)NC(=O)[C@H](C(C)C)NC(=O)[C@H](Cc2ccc(-c3ccccc3)cc2)NC(=O)[C@H](C(C)C)NC(=O)[C@H](Cc2c[nH]c3ccccc23)NC(=O)[C@H](CC(=O)O)NC(=O)[C@H](Cc2ccc(O)cc2)NC(=O)[C@H](Cc2cccnc2)NC(=O)CSC[C@@H](C(=O)N[C@@H](C)C(N)=O)NC(=O)[C@H]([C@@H](C)O)NC(=O)[C@H](C(C)C)NC1=O` [Compound 1050] ({CH2CO}-[3Pal]YDWV[Bip]V[Orn][dL][Dab]LVTCA-NH2; thioether N-14): the IC50 worked out at 9.9 nM.

On to `CC(C)C[C@H]1NC(=O)[C@H](CCCN)NC(=O)[C@H](CCC(=O)O)NC(=O)[C@H](Cc2ccc(-c3ccccc3)cc2)NC(=O)[C@H](C(C)C)NC(=O)[C@H](Cc2c[nH]c3ccccc23)NC(=O)[C@H](CC(=O)O)NC(=O)[C@H](Cc2cccnc2)NC(=O)[C@H](Cc2ccc(OCC(=O)O)cc2)NC(=O)CSC[C@@H](C(=O)N[C@@H](C)C(N)=O)NC(=O)[C@H]([C@@H](C)O)NC(=O)[C@H](C(C)C)NC(=O)[C@H](CC2CCCCC2)NC(=O)[C@H](CCN)NC1=O` [Compound 2173], for which the IC50 was 16.8 nM.

As to `CC(C)C[C@H]1NC(=O)[C@H](CCCN)NC(=O)[C@H](C(C)C)NC(=O)[C@H](Cc2ccc(-c3ccccc3)cc2)NC(=O)[C@H](C(C)C)NC(=O)[C@H](Cc2c[nH]c3ccccc23)NC(=O)[C@H](CC(=O)O)NC(=O)[C@H](Cc2ccc(OCC(=O)O)cc2)NC(=O)[C@H](CN)NC(=O)CSC[C@@H](C(=O)N[C@@H](C)C(N)=O)NC(=O)[C@H]([C@@H](C)O)NC(=O)[C@H](C(C)C)NC(=O)[C@H](CC2CCCCC2)NC(=O)[C@H](Cc2cnc[nH]2)NC1=O` [Compound 1525], the concentration for half-maximal inhibition (IC50) is 15.4 nM.

With `COCCNC(=O)[C@H](CCN)NC(=O)[C@@H]1CSCC(=O)N[C@@H]([C@@H](C)O)C(=O)N[C@@H](Cc2ccc(C(=O)O)cc2)C(=O)N[C@@H](CC(=O)O)C(=O)N[C@@H](Cc2cccc(C)c2)C(=O)N[C@@H](Cc2ccc(OCC(=O)O)cc2)C(=O)N[C@@H](Cc2ccc(-c3ccccc3)cc2)C(=O)N[C@@H](Cc2ccc(OCC(=O)O)cc2)C(=O)N[C@@H](CCCN)C(=O)N[C@H](CC(C)C)C(=O)N[C@@H](CCN)C(=O)N[C@@H](CC2CCCCC2)C(=O)N[C@@H](C(C)(C)O)C(=O)N[C@@H](CO)C(=O)N1` [Compound 2077] ({CH2CO}-T[Phe(4-COOH)]D[Phe(3-Me)]Y(Carboxymethyl)[Bip]Y(Carboxymethyl)[Orn][dL][Dab][Cha][Val(3-OH)]SC[Dab]-NHCH2CH2OMe; thioether N-14), the 50% inhibitory concentration (IC50) was 7.3 nM.

Turning to `CC(C)C[C@@H]1NC(=O)[C@H](Cc2c[nH]c3ccccc23)NC(=O)[C@H](CC(=O)O)NC(=O)[C@H](Cc2ccc(O)cc2)NC(=O)[C@H](Cc2ccccc2)NC(=O)CSC[C@@H](C(=O)N[C@@H](C)C(N)=O)NC(=O)[C@H](CO)NC(=O)[C@H](C(C)C)NC(=O)[C@H](CC(C)C)NC(=O)[C@H](CC(N)=O)NC(=O)[C@@H](C)NC(=O)[C@H](CN)NC(=O)[C@H](C(C)C)NC(=O)[C@H](Cc2ccc(-c3ccccc3)cc2)NC1=O` [Compound 1075] ({CH2CO}-FYDWL[Bip]V[Dap][dA]NLVSCA-NH2; thioether N-14), the concentration for half-maximal inhibition (IC50) worked out at 50.1 nM.

With `C#CCC(NC(=O)[C@H](CCN)NC(=O)[C@@H]1CSCC(=O)N[C@@H](Cc2ccncc2)C(=O)N[C@@H](Cc2ccc(OCC(=O)O)cc2)C(=O)N[C@@H](CC(=O)O)C(=O)N[C@@H](Cc2c[nH]c3ccccc23)C(=O)N[C@@H](C(C)C)C(=O)N[C@@H](Cc2ccc(-c3ccccc3)cc2)C(=O)N[C@@H]([C@@H](C)CC)C(=O)N[C@@H](CCCN)C(=O)N[C@H](CC(C)C)C(=O)N[C@@H](CCN)C(=O)N[C@@H](CC(C)C)C(=O)N[C@@H](C(C)C)C(=O)N[C@@H]([C@@H](C)O)C(=O)N1)C(N)=O` (stereo partly drawn) [Compound 1759] ({CH2CO}-[4Pal]Y(Carboxymethyl)DWV[Bip]I[Orn][dL][Dab]LVTC[Dab][ξPra]-NH2; thioether N-14), the IC50 was 7.2 nM.

In the case of `Cc1cccc(C[C@@H]2NC(=O)[C@H](CC(=O)O)NC(=O)[C@H](Cc3ccc(O)cc3)NC(=O)[C@H](CC(N)=O)NC(=O)CSC[C@@H](C(=O)N[C@@H](C)C(N)=O)NC(=O)[C@H]([C@@H](C)O)NC(=O)[C@H](C(C)C)NC(=O)[C@H](CC(C)C)NC(=O)[C@H](CCN)NC(=O)[C@@H](CC(C)C)NC(=O)[C@H](CCCN)NC(=O)[C@H](CCCNC(N)=O)NC(=O)[C@H](Cc3ccc(-c4ccccc4)cc3)NC(=O)[C@H](CC(C)C)NC2=O)c1` [Compound 1305] ({CH2CO}-NYD[Phe(3-Me)]L[Bip][Cit][Orn][dL][Dab]LVTCA-NH2; thioether N-14), the IC50 is 11.7 nM.

Take `COCC[C@@H]1NC(=O)[C@H](CN)NC(=O)CSC[C@@H](C(=O)N[C@@H](C)C(N)=O)NC(=O)[C@H]([C@@H](C)O)NC(=O)[C@H](C(C)C)NC(=O)[C@H](CC2CCCCC2)NC(=O)[C@H](CCN)NC(=O)[C@@H](CC(C)C)NC(=O)[C@H](CCCN)NC(=O)[C@H](CCCNC(N)=O)NC(=O)[C@H](Cc2ccc(-c3ccccc3)cc2)NC(=O)[C@H](C(C)C)NC(=O)[C@H](Cc2c[nH]c3ccccc23)NC(=O)[C@H](CC(=O)O)NC1=O` [Compound 2133] ({CH2CO}-[Dap][hSer](Me)DWV[Bip][Cit][Orn][dL][Dab][Cha]VTCA-NH2; thioether N-14): the half-maximal inhibitory concentration (IC50) was 24.6 nM.

With `CC(C)C[C@H]1NC(=O)[C@H](CCCN)NC(=O)[C@H](CCCNC(N)=O)NC(=O)[C@H](Cc2ccc(-c3ccccc3)cc2)NC(=O)[C@H](C(C)C)NC(=O)[C@H](Cc2c[nH]c3ccccc23)NC(=O)[C@H](CC(=O)O)NC(=O)[C@H](Cc2ccsc2)NC(=O)[C@H](CN)NC(=O)CSC[C@@H](C(=O)N[C@@H](C)C(N)=O)NC(=O)[C@H]([C@@H](C)O)NC(=O)[C@H](C(C)C)NC(=O)[C@H](CC2CCCCC2)NC(=O)[C@H](CCN)NC1=O` [Compound 2100], the 50% inhibitory concentration (IC50) was determined as 21.2 nM.

On to `CCCC[C@@H]1NC(=O)[C@H](Cc2ccc(-c3ccccc3)cc2)NC(=O)[C@H](C(C)C)NC(=O)[C@H](Cc2c[nH]c3ccccc23)NC(=O)[C@H](CC(=O)O)NC(=O)[C@H](Cc2ccc(C(=O)O)cc2)NC(=O)[C@H](Cc2ccncc2)NC(=O)CSC[C@@H](C(=O)N[C@@H](C)C(N)=O)NC(=O)[C@H]([C@@H](C)O)NC(=O)[C@H](C(C)C)NC(=O)[C@H](CC2CCCCC2)NC(=O)[C@H](Cc2cnc[nH]2)NC(=O)[C@@H](CC(C)C)NC(=O)[C@H](CCCN)NC1=O` [Compound 1622], for which the half-inhibitory concentration (IC50) was 36 nM.

The term IC50 denotes the concentration at which inhibition is half-maximal.
